Measured values reported in patent US12187758B2 (ROME Therapeutics, Inc., priority 2022, dated 2025).

How the values were obtained:
human PBMC = assay: Decitabine-stimulated human PBMC assay; type: cell-based; conditions: PBMCs, 5 days; for IFN-β production: anti-CD3/anti-CD28, decitabine 10 μM, FIGS. 3A and 3B
Procedure: EasySep buffer (32 mL, […] Technologies, cat. #20144) was used to dilute 8 mL of LRSC buffy coat (from fresh Leukopak) with gentle mixing. The diluted buffy coat (20 mL) was transferred into each of two SepMate 50 tubes, and the tubes were filled with 15 mL of Lyphoprep ([…], cat. #07851) density gradient. The SepMate tubes were then centrifuged at 1200 G for 10 minutes at room temperature with the brake on. The top layer of supernatant was collected in SepMate tubes by quickly pouring it into a new 50 mL conical tube. The PBMCs were washed with EasySep buffer×2 by centrifuging at 300 G for 5 minutes. The cells were resuspended in 30 mL of EasySep and centrifuged at 100 G for 5 minutes with the brake off, and the platelets were removed. The cells were then resuspended in 6 mL of 1×RBC lysis buffer (Invitrogen) and incubated at 37° C. for 5 minutes. 25 mL of EasySep buffer was then mixed into the tube and centrifuged at 300 G for 5 minutes. The cells were resuspended in 10 mL of EasySep buffer and the cells were then counted with Cellometer (AO/PI). The PBMCs were resuspended in RPMI1640 (ThermoFisher)+ 10% FBS (HyClone)+μ/s at 3×10^6/mL. The PBMCs (100 μL, 300 k PBMCs) were then seeded in a 96-well flat bottom microplate (Corning) that had been precoated with 100 μL of anti-CD3 antibody (10 μg/mL in PBS, Biolegend) or PBS at 4° C., one day before the assay was commenced.
To each well the following solutions were added 1) 100 μL of cells (final cell number per well is 3×10^5 cell/well); 2) 25 μL of anti-CD28 antibody at 6× (5 μg/mL final concentration, Biolegend); 3) 25 μL of decitabine at 6× (10 μM final concentration); and 4) Compound in DMSO was dispensed directly into each well with a d300e digital dispenser (Tecan). The final concentration of DMSO for each well was normalized to 0.3%. The plate was incubated at 37° C. without any agitation for 5 days. Samples were collected 120 hours after incubation to determine IFN-β […] levels using a U-PLEX Human IFN-β Assay Sector (5PL) (MSD, cat. #K151VIK-2).
After 5 days, the plate was spun down at 100×G for 5 minutes. Supernatants (100 μL) were collected for interferon R (IFN-0) analysis using the MSD assay noted above, and any residual supernatant was stored at −80° C.

[1] = tested on: interferon-stimulated gene (ISG) response; assay: In vivo decitabine challenge model in BALB/c mice; conditions: decitabine i.p. 5 mg/kg, RNAseq
Procedure: Thirty 9-11 week old BALB/c mice were acclimated to the lab for at least 5 days. Compounds 2, 40 and 67 were prepared in a 20% PEG400 (pH 3.5) solution for p.o. administration, compounds were prepared no more than 30 minutes prior to daily dosing. Decitabine (Sigma) was dissolved in sterile PBS (pH 7.4) and dosed within 30 minutes of preparation of the solution. Doses of both the compound and decitabine were administered once a day, every day from Day 0 to day 4. On Day 0, mice were split into […] of five mice and given their first dose of decitabine (i.p., 5 mg/kg) and compound. Dosing groups were as in the following table (all doses in mg/kg): [table] Decitabine (i.p., 5 mg/kg) and compounds 2, 40 or 67 were administered daily from […] to Day 4. All mice were euthanized 1 hour after the last dose administration on Day 4. Spleen and kidneys were harvested and snap frozen in liquid nitrogen, and plasma (EDTA) was collected for bioanalysis. Total RNA was isolated using the PureLink RNA Mini Kit (ThermoFisher) and prepared for RNAseq using the TruSeq Stranded mRNA platform (Illumina). 50M Stranded reads were collected on an Illumina HiSeq system. Data were analyzed as follows: RNA sequencing reads were aligned to the […] reference genome using the STAR RNA-seq aligner (Dobin et al., 2013). Expression of each transcript was quantified using Salmon (Patro, et al. 2015) TPM values for each transcript. These transcript-level TPM values were aggregated by gene to get gene-level TPM values, and log-transformed these values. Mouse orthologs for each gene in the list of ISG-associated genes in the human genome from Liu et al., 2019 using Ensembl BioMart (Kinsella et al., 2011) were identified. The ISG score for each sample was calculated as the median log-transformed TPM value across all genes in this ISG gene set.

7S mitochondria DNA = assay: Mitochondria DNA assay with PC3 cells; type: cell-based; conditions: Homo sapiens, PC-3, 120 h, 5 days, 7S mitochondria DNA level by qPCR relative to 18S or GAPDH
Procedure: Exemplary compounds were tested for their effect on levels of 7S mitochondria DNA, and the DNA of housekeeping genes 18S and GAPDH. Reduction of 7S mitochondria DNA indicates off-target inhibition of mitochondrial DNA synthesis, which leads to mitochondrial toxicity. Assay procedures and results are described below.
PC3 cells were purchased from ATCC and cultured in F-12 Kaighn's modified medium (Hyclone), 10% heat-inactivated fetal bovine serum (Gibco), 1% Penicillin-Streptomycin (Invitrogen). PC3 cells were treated with a dose titration of a test compound on 6 well plates for 5 days at 37° C., 5% CO2 in a humidified incubator.
Cells were harvested and mitochondria DNA extraction was performed using DNeasy Blood & Tissue Kit (Qiagen) according to the manufacture's instruction.
Mitochondria 7S and housekeeping genes 18S and GAPDH DNA was quantified by multiplex qPCR with the PowerUp™ SYBR™ Green system (Applied Biosystems). Prepare reaction mix consisting of 5 μl of 2× PowerUp™ SYBR™ Green Master Mix, 1 μl of 5 μM Primers for 7S, 18S, or GAPDH, 4 μl of DNA template from DNA extraction above. The primer sequences are below:
qPCR was performed on QuantStudio™ 7 Flex RealTime qPCR system (Applied Biosystems) as set forth below: • a. 50° C. for 2 minutes, then • b. 95° C. for 2 minutes, then • c. 95° C. for 15 seconds, then • d. 60° C. for 60 seconds, • where then steps (c) and (d) were repeated 60 times.
Threshold was calculated by QuantStudio™ 7 Flex Software (ThermoFisher Scientific) using the default settings. Ct values were used to evaluate the relative mitochondria DNA (mtDNA) level using the following formula: ΔCt=Ct (7S target gene)−Ct (18S) or ΔCt=Ct (7S target gene)−Ct (GAPDH). Relative mtDNA level=2^−Δct. Expression fold over DMSO control=2^−Δct (compound treated group)/2^−Δct (DMSO group)
In the table “A” represents values≤0.1 μM; “B” represents values from >0.1 μM to ≤1.0 μM; “C” represents values from >1.0 μM to ≤10.0 μM; “D” represents values from >10.0 μM to ≤100.0 μM; and “E” represents values>100.0 μM.

pTBK1 = pTBK1 level with and without UVB exposure (Example 111); type: cell-based; conditions: varying concentrations of compound, alone or after UVB exposure (FIGS. 4B and 4C)

Row | SMILES | IFN-β production (human PBMC) | change in the ISG Score in the spleen and kidney ([1]; compound 100 mg/kg p.o. daily) | IC50 (7S mitochondria DNA) | level of pTBK1 (pTBK1) | cell viability (human PBMC; decitabine 10 μM) | change in the ISG Score in the spleen and kidney ([1]; compound 30 mg/kg p.o. daily)
1 | Nc1ccn([C@H]2C[C@H](O)[C@](CO)(CCl)O2)c(=O)n1 [Compound 2, 4-amino-1-((2R,4S,5R)-5-(chloromethyl)-4-hydroxy-5-(hydroxymethyl)tetrahydrofuran-2-yl)pyrimidin-2(1H)-one] | showed inhibition of IFN-β | show a change in the ISG Score in the spleen and kidney | ≤ 0.1 µM | varies in a dose-dependent fashion | – | –
2 | Nc1nc(=O)n([C@H]2C[C@H](O)[C@](CO)(CCl)O2)cc1F [Compound 14, 4-amino-1-((2R,4S,5R)-5-(chloromethyl)-4-hydroxy-5-(hydroxymethyl)tetrahydrofuran-2-yl)-5-fluoropyrimidin-2(1H)-one] | – | – | ≤ 0.1 µM | varies in a dose-dependent fashion | – | –
3 | C#C[C@]1(CO)O[C@@H](n2cnc3c(N)nc(Cl)nc32)C[C@@H]1O [Compound 25] | activated production of IFN-β | – | > 100 µM | – | – | –
4 | Nc1ccn([C@@H]2O[C@@](CO)(CCl)[C@@H](O)[C@@H]2F)c(=O)n1 [Compound 40, 4-amino-1-((2R,3S,4R,5R)-5-(chloromethyl)-3-fluoro-4-hydroxy-5-(hydroxymethyl)tetrahydrofuran-2-yl)pyrimidin-2(1H)-one] | showed inhibition of IFN-β | show a change in the ISG Score in the spleen and kidney | > 100 µM | varies in a dose-dependent fashion | some cell viability losses at higher concentrations | –
5 | CC[C@]1(CO)O[C@@H](n2ccc(N)nc2=O)C[C@@H]1O [Compound 44, 4-amino-1-((2R,4S,5R)-5-ethyl-4-hydroxy-5-(hydroxymethyl)tetrahydrofuran-2-yl)pyrimidin-2(1H)-one] | – | – | > 100 µM | varies in a dose-dependent fashion | – | –
6 | [N-]=[N+]=N[C@]1(CO)O[C@@H](n2cc(F)c(N)nc2=O)C[C@@H]1O [Compound 61, 4-amino-1-((2R,4S,5R)-5-azido-4-hydroxy-5-(hydroxymethyl)tetrahydrofuran-2-yl)-5-fluoropyrimidin-2(1H)-one] | – | – | > 100 µM | – | – | –
7 | Nc1nc(=O)n([C@@H]2O[C@@](CO)(CCl)[C@@H](O)[C@@H]2F)cc1F [Compound 67, 4-amino-1-[(2R,3S,4R,5R)-5-(chloromethyl)-3-fluoro-4-hydroxy-5-(hydroxymethyl)oxolan-2-yl]-5-fluoropyrimidin-2-one] | – | show a change in the ISG Score in the spleen and kidney | > 100 µM | – | – | show a change in the ISG Score in the spleen and kidney
8 | Nc1nc(=O)n([C@H]2C[C@H](O)[C@](CO)(CBr)O2)cc1F [Compound 88, 4-amino-1-((2R,4S,5R)-5-(bromomethyl)-4-hydroxy-5-(hydroxymethyl)tetrahydrofuran-2-yl)-5-fluoropyrimidin-2(1H)-one] | – | – | ≤ 0.1 µM | – | – | –
